Among the data in US5780642A, “Imidazole derivatives as therapeutic agents” (KNOLL Aktiengesellschaft, priority 1993, dated 1998) are IC50 values, retold here.

Counter-ions that a name gives are not always drawn.

For the first experiment, the system named is Zymosan Stimulated Macrophages (arachidonic acid release). As to the kind of experiment: Test A: Inhibition of Arachidonic Acid Release from Zymosan Stimulated Macrophages. The class given is cell-based, mouse (female MF1 mice). The note with it: Mus musculus, Macrophage, inhibition of arachidonic acid release, zymosan stimulated mouse peritoneal macrophages; tested at 100, 50, 20, 10, 5 and 1 μM; ≤100 μM considered active; read-out: Test A IC50. As to the method:
Test A was carried out in the following way:
Inhibition of Arachidonic Acid Release from Zymosan Stimulated Macrophages
Female MF1 mice (weighing 20 to 25 g) were killed using a rising concentration of CO2. The mice were laid on their backs and the abdomens wiped with 70% alcohol. The skin was pulled back, exposing the peritoneal wall. Medium A (5 ml) (see below) was injected into the peritoneal cavity of each mouse followed by approximately 1 ml of air using a 20 ml syringe and a 21G×40 mm needle in order to form a suspension of macrophage cells. The medium and cells were then removed using a 19G×40 mm needle. The resulting suspension was returned to a sterile beaker kept on ice. The extracts from all the mice were pooled and this pooled cell suspension was counted using a Coulter counter and adjusted to a final cell count of 1-1.3×10^6 cells/ml prior to labelling with [^3 H]-arachidonic acid. Typically five mice provided sufficient cells for each multiwell plate.
Sufficient [^3 H]-arachidonic acid in ethanol to give a final concentration of 1.6 μCi/ml (equivalent to 40 μCi/plate) was blown to dryness under nitrogen. The arachidonic acid was then resuspended in 1 or 2 ml of the cell suspension which was then mixed with the remainder of the cell suspension in a centrifuge bottle. The labelled cell suspension was then plated out into sterile plastic 96 flat-bottomed well plates (250 μl per well) and incubated overnight at 37° C. in a moist atmosphere of 5% CO2, 95% air.
The following day, non-adherent cells were removed by washing 3 times with sterile phosphate buffered saline (PBS). The adherent peritoneal macrophages were then cultured for a further 24 hours in the presence or absence of drugs, in medium B (see below) at 37° in a 5% CO2 atmosphere in order to measure the effects of drugs on the spontaneous release of arachidonic acid in the absence of stimulus. After this incubation, supernatants were removed to give media 1 and stored in sealed multi-well plates at 4° C. prior to scintillation counting. Drugs which potentiated spontaneous release of arachidonic acid (125% of controls) were deemed to be toxic at the concentration at which this phenomenon occurred. The supernatants were replaced by fresh medium C containing fresh drug and a stimulus. Three drugs were tested at six concentrations (100, 50, 20, 10, 5 and 1 μM) in replicates of four on each plate. The other wells contained controls consisting of a positive control (e.g. dexamethasone), medium (B) only and medium C only.
Incubation was then continued for a further 5 hours, whereupon the supernatants were collected to give media 2 and the adherent cells washed with PBS. The cells were then lysed with 100 μl of 0.1% TRITON® X100 in a 0.1% solution of bovine serum albumin in 0.9% saline and mechanically disrupted to give cell lysates. These supernatants (media 2) and cell lysates (Cells) were also stored in sealed multi-well plates at 4° C. prior to scintillation counting. 200 μl aliquots of media, or 100 μl aliquots of cells were counted using 2 ml of OPTIPHASE "HIGH SAFE" (Trademark of LKB) as scintillant.
The percentage of arachidonic acid released was calculated using the mean values for each group of 4 wells in the following equation. [formula]
The value for the arachidonic acid release in the absence of stimulus (spontaneous, cpm of media 2) from cells which had been exposed to neither stimulus nor drug was subtracted from all equivalent values (cpm media 2, stimulated with or without drug) to give the net stimulated release. The percentage inhibition of arachidonic acid release caused by a drug may then be calculated using the following equation. [formula]
Compounds of formula I were tested at six concentrations (100, 50, 20, 10, 5 and 1 μM) and IC50 values calculated. Compounds with IC50 values≤100 μM are considered to be active. Advantageous compounds have an IC50 value<50 μM.
Medium A (for peritoneal lavage) […]
With `CCc1ccc(OCCNCCCn2ccnc2)cc1` [Example 5, N-[2-(4-Ethylphenoxy)ethyl]-3-(imidazol-1-yl)propylamine], the IC50 came to 17 µM.

On to `Cc1ccc(OCCNCCCn2ccnc2)cc1C` [Example 6, N-[2-(3,4-Dimethylphenoxy)ethyl]-3-(imidazol-1-yl)propylamine], for which the IC50 stood at 20 µM.

On to `Clc1ccc(OCCCNCCCn2ccnc2)cc1` [Example 9, 3-(4-Chlorophenoxy)-3'-(imidazol-1-yl)dipropylamine], for which the IC50 stood at 50 µM.

As to `c1ccc(COc2ccc(OCCNCCCn3ccnc3)cc2)cc1` [Example 10, N-[2-(4-Benzyloxyphenoxy)ethyl]-3-(imidazol-1-yl)propylamine dihydrochloride hydrate], the IC50 was 36 µM.

For the compound `Clc1ccc(SCCNCCCn2ccnc2)cc1` [Example 11, N-[2-(4-Chlorophenylthio)ethyl]-3-(imidazol-1-yl)propylamine], the IC50 came out at 37 µM.

With `Cc1nccn1CCCNCCCc1ccc(Cl)cc1` [Example 12, 3-(4-Chlorophenyl)-3'-(2-methylimidazol-1-yl)dipropylamine], the IC50 is 7 µM.

In the case of `CC(C)(CNCCCn1ccnc1)c1ccc(Cl)cc1` [Example 13, 2-(4-Chlorophenyl)-3'-(imidazol-1-yl)-2-methyldipropylamine dihydrochloride], the IC50 worked out at 9 µM.

As to `Clc1ccc(CCCNCCCn2ccnc2)cc1` [Example 14, 3-(4-Chlorophenyl)-3'-(imidazol-1-yl)dipropylamine], the IC50 turned out to be 6 µM.

As for `CC(C)(CNCCCn1ccnc1)Sc1ccc(Cl)cc1` [Example 18, 2-(4-Chlorophenylthio)-3'-(imidazol-1-yl)-2-methyldipropylamine dihydrochloride], the IC50 amounted to 20 µM.

`Cc1cc(SCC(C)(C)NCCCn2ccnc2)c(C)cc1Cl` [Example 20, N-[2-(4-Chloro-2,5-xylylthio)-1,1-dimethylethyl]-3-(imidazol-1-yl)propylamine dihydrochloride]: the IC50 was determined as 4 µM.

In the case of `CC(C)(NCCCn1cnc(CCN)c1)c1ccc(Cl)cc1` [Example 22, 3-[4-(2-Aminoethyl)imidazol-1-yl]-N-[1-(4-chlorophenyl)-1-methylethyl]propylamine trihydrochloride], the IC50 amounted to 26 µM.

Take `CC(C)(NCCCn1ccnc1C(O)c1ccccc1)c1ccc(Cl)cc1` (stereo not drawn) [Example 23, α-(1-{3-[1-(4-Chlorophenyl)-1-methylethylamino]propyl}-imidazol-2-yl)benzyl alcohol]: the IC50 was determined as 7 µM.

For the compound `Cc1ccc(S(=O)(=O)Cc2ccc(C(C)(C)NCCCn3ccnc3)cc2)cc1C` [Example 24, 3-(imidazol-1-yl)-N-{1-methyl-1-[4-(3,4-xylylsulphonylmethyl)phenyl]ethyl}propylamine dihydrochloride hydrate], the IC50 is 22 µM.

For `CCCCCCS(=O)(=O)Cc1ccc(C(C)(C)NCCCn2ccnc2)cc1` [Example 25, N-(1-[4-(Hexylsulphonylmethyl)phenyl]-1-methylethyl)-3-(imidazol-1-yl)propylamine dihydrochloride], the IC50 is 11 µM.

On to `CCCN(CCC)S(=O)(=O)c1ccc(C(C)(C)NCCCn2ccnc2)cc1` [Example 26, 4-{1-[3-(Imidazol-1-yl)propylamino]-1-methylethyl}-N,N-dipropylbenzenesulphonamide], for which the IC50 turned out to be 10 µM.

For `CC(C)(NCCCn1ccnc1)c1ccc(CCOCc2ccccc2)cc1` [Example 27, N-{1-[4-(2-Benzyloxyethyl)phenyl]-1-methylethyl}-3-(imidazol-1-yl)propylamine], the IC50 came to 70 µM.

As for `CC(C)(NCCCn1ccnc1)c1ccc(C(=O)NC2CCCCC2)cc1` [Example 28, N-Cyclohexyl-4-{1-[3-(imidazol-1-yl)propylamino]-1-methylethyl}benzamide], the 50% inhibitory concentration (IC50) was determined as 25 µM.

On to `CC(C)(NCCCn1ccnc1)c1ccc(CC(=O)NCc2ccc(Cl)cc2)cc1` [Example 30, N-(4-Chlorobenzyl)-4-{1-[3-(imidazol-1-yl)propylamino]-1-methylethyl}phenylacetamide], for which the concentration for half-maximal inhibition (IC50) was found to be 20 µM.

In the case of `N#Cc1ccc(OCCNCCCn2ccnc2)cc1` [Example 31, 4-{2-[3-(Imidazol-1-yl)propylamino]ethoxy}benzonitrile sesquihydrochloride], the IC50 came to 74 µM.

Take `Clc1ccc(C2(CCNCCCn3ccnc3)OCCO2)cc1` [Example 32, N-{2-[2-(4-Chlorophenyl)-1,3-dioxolan-2-yl]ethyl}-3-(imidazol-1-yl)propylamine]: the IC50 is 9 µM.

`CSc1ccc(OCC(C)(C)NCCCn2ccnc2)cc1` [Example 33, N-[1,1-Dimethyl-2-(4-methylthiophenoxy)ethyl]-3-(imidazol-1-yl)propylamine dihydrochloride hydrate]: the IC50 was determined as 32 µM.

For the compound `CCCC(CCC)(NCCCn1ccnc1)c1ccc(CC(=O)NC)cc1` [Example 34, 4-{1-[3-(Imidazol-1-yl)propylamino]-1-propylbutyl)phenyl-N-methylacetamide], the IC50 was determined as 76 µM.

On to `CC(C)(COc1ccccc1)NCCCn1ccnc1` [Example 35, 3-(Imidazol-1-yl)-N-(1,1-dimethyl-2-phenoxyethyl) propylamine], for which the half-inhibitory concentration (IC50) was determined as 47 µM.

For the compound `COc1ccccc1CCC(C)(C)NCCCn1ccnc1` [Example 36, 3'-(Imidazol-1-yl)-3-(2-methoxyphenyl)-1,1-dimethyldipropylamine], the concentration for half-maximal inhibition (IC50) turned out to be 60 µM.

On to `CC(C)(NCCCn1ccnc1)c1ccc(CC(=O)NC2CCCCCC2)cc1` [Example 37, N-Cycloheptyl-4-{1-[3-(imidazol-1-yl)propylamino]-1-methylethyl}phenylacetamide], for which the half-maximal inhibitory concentration (IC50) amounted to 49 µM.

On to `CC(C)(COc1ccc(C(F)(F)F)cc1)NCCCn1ccnc1` [Example 39, N-{2-[4-(Trifluoromethyl)phenoxy]-1,1-dimethylethyl}-3-(imidazol-1-yl)propylamine dimaleate], for which the IC50 was 0.2 µM.

For the compound `CC(C)(COc1ccc(F)cc1)NCCCn1ccnc1` [Example 40, N-[2-(4-Fluorophenoxy)-1,1-dimethylethyl]-3-(imidazol-1-yl)propylamine dimaleate hemihydrate], the IC50 came out at 0.3 µM.

Regarding `CCC(CC)(CO)c1ccc(C(C)(C)NCCCn2ccnc2)cc1` [Example 41, 2-Ethyl-2(4-{1-[3-(imidazol-1-yl)propylamino]-1-methylethyl}phenyl)butan-1-ol], the concentration for half-maximal inhibition (IC50) stood at 10 µM.

Still in this experiment, the particulars now being: Mus musculus, Macrophage, read-out: Test A IC50.
As to `CC(C)(Cc1ccc(Cl)cc1)NCCCn1ccnc1` [Example 21, N-[2-(4-Chlorophenyl)-1,1-dimethylethyl]-3-(imidazol-1-yl)propylamine dihydrochloride], the 50% inhibitory concentration (IC50) was found to be 8 µM.

The same experiment, now with this note: inhibition of arachidonic acid release, zymosan stimulated mouse peritoneal macrophages; tested at 100, 50, 20, 10, 5 and 1 μM; ≤100 μM considered active; read-out: Test A IC50.
For the compound `CC(C)(NCC(O)Cn1ccnc1)c1ccc(Cl)cc1` (single isomer, unassigned; (+)) [Example 45, (+)-1-[1-(4-Chlorophenyl)-1-methylethylamino]-3-(imidazol-1-yl)propan-2-ol], the IC50 turned out to be 170 µM.

On to `CC(C)(NCC(O)Cn1ccnc1)c1ccc(Cl)cc1` (single isomer, unassigned; (-)) [Example 46, (-)-1-[1-(4-Chlorophenyl)-1-methylethylamino]-3-(imidazol-1-yl)propan-2-ol], for which the IC50 came to 80 µM.
